Test results taken from article PMC11352859, “Functionalized Congeners of 2H-Chromene P2Y6 Receptor Antagonists” (Cells, 2024).
Several values for one entry are separate records, joined by “and”; a condition that tells them apart may be missing. Identical values can stand only once. Like-named read-outs stand apart in the source and are kept apart here.

Columns and labels:
[1] = tested on: 45 target sites (receptors, channels, and transporters); test: PDSP off-target binding screen at 45 target sites; design: species or system human; conditions: PDSP binding assays
Source text: (§1) Table S2. Off-target screening (to replace table later). We thank Dr. Bryan L. Roth (Univ. North Carolina at Chapel Hill) and National Institute of Mental Health's Psychoactive Drug Screening Program (Contract # HHSN-271-2008-00025-C) for screening data. Reference: Besnard et al.
(§2) Procedures: https://pdsp.unc.edu/pdspweb/content/UNC-CH%20Protocol%20Book.pdf […]
(§3) nucleosides were found at the following sites (human unless noted): 5HT1A, 5HT1B, 5HT1D, […]
(§4) β3, BZP rat brain site, D1, D2, D3, D4, D5, GABAA, H1, H2, H3, H4, M1, M2, M5, δ-opioid receptor (DOR), κ-opioid receptor (KOR), μ-opioid receptor (MOR), σ1, σ2, DAT, NET, SERT. Ki values […]
(§5) Compound # PDSP # Receptor LogKi Ki (nM)

[2] = tested on: HeLa cells; test: MTT cell viability assay, HeLa cells; format: cell-based, human; conditions: for % survival: 12 h, MTT
Method: (§6) The 1321N1 astrocytoma (hP2Y6R-overexpressing) and HeLa (non-transfected) cell lines were cultured in Dulbecco’s modified Eagle’s medium (DMEM, HyClone, Logan, UT, USA) supplemented with 5% heat-inactivated fetal bovine serum (FBS, HyClone, UT, USA), 100 U/mL penicillin, and 100 µg/mL streptomycin in 5% CO2 at 37 °C. The cell viability was determined using an MTT kit (Sigma, St. Louis, MO, USA) according to the manufacturer’s instructions. Briefly, 1 × 10^4 cells were seeded in triplicate in 96-well plates. The hP2Y6R-astrocytoma and HeLa cells were treated with a P2Y6R agonist and antagonists at a range of concentrations and incubated for 12 h. The cell viability was measured at 490 nm using a SpectraMax-M5 Spectrometer (Molecular Devices, San Jose, CA, USA).

[3] = tested on: hP2Y6R-1321N1 human astrocytoma cells; test: MTT cell viability assay, hP2Y6R-1321N1 astrocytoma cells; format: cell-based; conditions: for % survival: P2Y6R-astrocytoma, 12 h, MTT
Method: as §6

[4] = tested on: mP2Y6; design: method as in PMID 37078976; conditions: Figure 1; ref [33]; cited from earlier work
[5] = molecular target: T1, hP2Y6R (Homo sapiens, UniProt Q15077); test: UDP (100 nM)-induced Ca2+ mobilization in hP2Y6R stably transfected 1321N1 astrocytoma cells; format: cell-based; conditions: UDP 100 nM; 3–4 independent triplicate determinations; read-out: IC50, hP2Y6R (Mean ± SEM)
T1 construct: expressed in transfected cells
Method: To screen for P2Y6R antagonist activity, PLC-mediated calcium mobilization assays were carried out using the recombinant human P2Y6R stably expressed in 1321N1 astrocytoma cells (hP2Y6R-1321N1) according to the previously published method. Briefly, the hP2Y6R-1321N1 cells were seeded on 96-well black plates and incubated overnight. The antagonists were pretreated along with the FLIPR dye (Calcium 6 assay kit, Molecular Devices, San Jose, CA, USA) containing 5 mM probenecid for 45 min, prior to agonist addition followed by an immediate intracellular Ca^2+ measurement. […] Here, probenecid was used as an organic anion transporter inhibitor to prevent the efflux of the dye into the extracellular environment. During incubation, the membrane permeable dye enters the cytoplasm and cleaves the acetoxymethyl protection to enable Ca^2+ binding. When the P2Y6R was activated by UDP, the increased calcium concentration was directly measured by intracellular changes in the fluorescence intensity with a Fluorescent Imaging Plate Reader (FLIPR^TETRA, Molecular Devices, San Jose, CA, USA).

[6] = molecular target: T2, hP2Y14R (Homo sapiens, UniProt Q15391); test: whole-cell binding of fluorescent antagonist MRS4174 in CHO-hP2Y14R cells (flow cytometry)
T2 construct: expressed in transfected cells
T2 sequence (Q15391 1-338): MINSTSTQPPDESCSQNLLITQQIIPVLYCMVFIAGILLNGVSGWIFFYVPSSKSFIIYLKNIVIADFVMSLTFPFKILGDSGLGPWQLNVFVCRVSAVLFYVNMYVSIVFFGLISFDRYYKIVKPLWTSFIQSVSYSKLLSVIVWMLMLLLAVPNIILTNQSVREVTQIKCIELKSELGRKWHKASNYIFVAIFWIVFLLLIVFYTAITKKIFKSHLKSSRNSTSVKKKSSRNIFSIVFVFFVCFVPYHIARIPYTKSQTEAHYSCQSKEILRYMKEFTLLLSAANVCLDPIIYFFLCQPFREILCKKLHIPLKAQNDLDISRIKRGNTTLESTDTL

[7] = molecular target: T3, α2A (Homo sapiens, UniProt P08913); test: PDSP binding assay, α2A
T3 construct: NIMH Psychoactive Drug Screening Program (PDSP)
T3 sequence (P08913 1-465): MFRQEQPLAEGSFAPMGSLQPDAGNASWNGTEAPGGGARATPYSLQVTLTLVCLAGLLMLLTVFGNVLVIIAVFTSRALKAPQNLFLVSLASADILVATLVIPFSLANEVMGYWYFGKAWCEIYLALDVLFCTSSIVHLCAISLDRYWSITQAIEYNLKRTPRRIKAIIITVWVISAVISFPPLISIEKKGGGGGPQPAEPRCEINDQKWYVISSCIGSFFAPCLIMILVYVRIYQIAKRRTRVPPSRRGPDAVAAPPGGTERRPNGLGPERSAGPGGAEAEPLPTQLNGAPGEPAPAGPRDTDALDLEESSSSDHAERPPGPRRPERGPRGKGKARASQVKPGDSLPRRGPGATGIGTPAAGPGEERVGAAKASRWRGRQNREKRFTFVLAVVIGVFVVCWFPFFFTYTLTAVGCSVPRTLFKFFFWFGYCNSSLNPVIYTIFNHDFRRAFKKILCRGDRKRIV
Source text: as §1, §2, §3, §4, §5

[8] = molecular target: T4, α2B (Homo sapiens, UniProt P18089); test: PDSP binding assay, α2B; conditions: mean, n = 2
T4 construct: NIMH Psychoactive Drug Screening Program (PDSP)
T4 sequence (P18089 1-450): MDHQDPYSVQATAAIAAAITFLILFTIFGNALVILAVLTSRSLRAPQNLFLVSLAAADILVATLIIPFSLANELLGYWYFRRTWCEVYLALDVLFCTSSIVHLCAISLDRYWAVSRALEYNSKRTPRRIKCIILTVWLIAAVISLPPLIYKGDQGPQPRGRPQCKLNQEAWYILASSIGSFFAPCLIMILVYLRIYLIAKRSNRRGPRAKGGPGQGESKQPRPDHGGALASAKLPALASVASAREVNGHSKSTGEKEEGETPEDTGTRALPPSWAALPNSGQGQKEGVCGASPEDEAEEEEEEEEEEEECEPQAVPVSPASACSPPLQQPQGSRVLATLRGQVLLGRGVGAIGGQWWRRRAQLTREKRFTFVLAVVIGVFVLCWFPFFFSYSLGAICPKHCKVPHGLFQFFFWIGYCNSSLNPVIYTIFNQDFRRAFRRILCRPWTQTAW
Source text: as §1, §2, §3, §4, §5

[9] = molecular target: T5, D1 (Homo sapiens, UniProt P21728); test: PDSP binding assay, D1
T5 construct: NIMH Psychoactive Drug Screening Program (PDSP)
Source text: as §1, §2, §3, §4, §5

[10] = molecular target: T6, D5 (Homo sapiens, UniProt P21918); test: PDSP binding assay, D5
T6 construct: NIMH Psychoactive Drug Screening Program (PDSP)
Source text: as §1, §2, §3, §4, §5

[11] = molecular target: T7, H1 (Homo sapiens, UniProt P35367); test: PDSP binding assay, H1
T7 construct: NIMH Psychoactive Drug Screening Program (PDSP)
Source text: as §1, §2, §3, §4, §5

[12] = molecular target: T8, 5-HT1D (Homo sapiens, UniProt P28221); test: PDSP binding assay, 5-HT1D
T8 construct: NIMH Psychoactive Drug Screening Program (PDSP)
Source text: as §1, §2, §3, §4, §5

[13] = molecular target: T3, α2A; design: method as in Jung et al., 2021 and 2022 [30],[40]; conditions: PDSP; ref Jung et al., 2021 and 2022 [30],[40]; cited from earlier work
[14] = tested on: other P2YRs; conditions: at high µM concentrations; ref [29],[43]; cited from earlier work
[15] = tested on: P2Y6R; conditions: P2Y6R agonist; no reference given; read-out: EC50 in PLC activation; cited from earlier work
[16] = tested on: rP2Y6; conditions: Figure 1; ref [33]; cited from earlier work
[17] = molecular target: α2C; design: method as in Jung et al., 2021 and 2022 [30],[40]; conditions: PDSP; ref Jung et al., 2021 and 2022 [30],[40]; cited from earlier work
[18] = molecular target: µ-opioid receptor (MOR); design: method as in Jung et al., 2021 and 2022 [30],[40]; conditions: PDSP; ref Jung et al., 2021 and 2022 [30],[40]; cited from earlier work

T7 sequence (P35367 whole entry): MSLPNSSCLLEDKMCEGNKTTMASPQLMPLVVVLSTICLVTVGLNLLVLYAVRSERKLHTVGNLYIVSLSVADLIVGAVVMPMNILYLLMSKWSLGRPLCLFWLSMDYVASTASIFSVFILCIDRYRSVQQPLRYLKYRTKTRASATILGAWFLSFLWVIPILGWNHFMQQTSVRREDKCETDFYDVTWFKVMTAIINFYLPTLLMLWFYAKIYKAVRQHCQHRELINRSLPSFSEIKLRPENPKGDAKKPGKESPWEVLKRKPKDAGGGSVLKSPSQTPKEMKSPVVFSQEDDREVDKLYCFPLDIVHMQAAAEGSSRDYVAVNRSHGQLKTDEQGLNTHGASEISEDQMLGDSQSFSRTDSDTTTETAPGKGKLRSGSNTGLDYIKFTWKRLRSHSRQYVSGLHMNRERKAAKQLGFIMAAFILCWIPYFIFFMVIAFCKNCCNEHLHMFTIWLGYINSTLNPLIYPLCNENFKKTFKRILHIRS
T6 sequence (P21918 whole entry): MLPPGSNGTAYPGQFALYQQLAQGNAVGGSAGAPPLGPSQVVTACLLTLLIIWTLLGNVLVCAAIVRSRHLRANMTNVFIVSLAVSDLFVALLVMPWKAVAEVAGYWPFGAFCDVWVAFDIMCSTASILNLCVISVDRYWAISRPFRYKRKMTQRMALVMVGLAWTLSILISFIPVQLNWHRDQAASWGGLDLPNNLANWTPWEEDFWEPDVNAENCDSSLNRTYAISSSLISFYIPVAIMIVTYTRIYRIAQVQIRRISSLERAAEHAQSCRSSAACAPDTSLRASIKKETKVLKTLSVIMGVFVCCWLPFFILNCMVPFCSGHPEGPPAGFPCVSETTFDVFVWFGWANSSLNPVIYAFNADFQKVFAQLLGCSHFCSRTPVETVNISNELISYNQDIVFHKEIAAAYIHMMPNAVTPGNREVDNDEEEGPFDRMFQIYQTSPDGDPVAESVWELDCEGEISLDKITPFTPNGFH
T8 sequence (P28221 whole entry): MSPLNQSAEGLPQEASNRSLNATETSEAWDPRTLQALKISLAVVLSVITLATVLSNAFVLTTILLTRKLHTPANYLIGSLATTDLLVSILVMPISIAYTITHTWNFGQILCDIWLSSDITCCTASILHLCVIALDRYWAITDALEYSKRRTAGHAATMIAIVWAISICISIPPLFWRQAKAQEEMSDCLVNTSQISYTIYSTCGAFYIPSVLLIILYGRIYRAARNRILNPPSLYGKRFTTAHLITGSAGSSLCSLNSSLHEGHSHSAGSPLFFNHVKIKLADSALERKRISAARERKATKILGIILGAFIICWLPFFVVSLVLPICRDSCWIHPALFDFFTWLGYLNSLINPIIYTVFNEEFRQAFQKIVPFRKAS
T5 sequence (P21728 whole entry): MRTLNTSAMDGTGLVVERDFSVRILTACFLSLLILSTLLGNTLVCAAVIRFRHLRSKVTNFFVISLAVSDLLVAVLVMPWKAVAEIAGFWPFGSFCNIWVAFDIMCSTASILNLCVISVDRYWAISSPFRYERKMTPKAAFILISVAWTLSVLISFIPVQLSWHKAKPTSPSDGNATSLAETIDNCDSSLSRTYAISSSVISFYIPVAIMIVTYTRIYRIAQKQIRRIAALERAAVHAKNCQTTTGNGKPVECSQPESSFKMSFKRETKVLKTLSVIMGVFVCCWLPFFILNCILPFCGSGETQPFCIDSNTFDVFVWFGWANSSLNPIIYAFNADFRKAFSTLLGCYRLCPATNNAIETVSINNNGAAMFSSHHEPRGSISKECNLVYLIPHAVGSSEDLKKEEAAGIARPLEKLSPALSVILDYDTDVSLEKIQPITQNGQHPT
T1 sequence (Q15077 whole entry): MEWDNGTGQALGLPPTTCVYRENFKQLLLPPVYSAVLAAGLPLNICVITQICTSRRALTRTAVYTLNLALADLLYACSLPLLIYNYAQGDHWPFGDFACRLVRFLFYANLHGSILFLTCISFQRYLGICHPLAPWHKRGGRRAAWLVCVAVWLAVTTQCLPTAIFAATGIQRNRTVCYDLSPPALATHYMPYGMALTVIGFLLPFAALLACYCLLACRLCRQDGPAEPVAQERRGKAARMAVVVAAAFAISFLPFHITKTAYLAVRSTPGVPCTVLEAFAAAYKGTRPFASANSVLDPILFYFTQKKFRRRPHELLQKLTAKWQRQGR

In the case of O=[N+]([O-])C1=Cc2cc(F)cc(F)c2OC1C(F)(F)F (centres unmarked) [Compound 2b], the “off-target interactions at 45 target sites” value [1] is reported as “no off-target interactions and none”, the “% survival” value ([2]; 0.1 µM) is reported as 87% and the “% survival” value ([2]; 0.5 µM) is reported as 86%. The “% survival” value ([2]; 1 µM) was 87%, the “% survival” value ([2]; 5 µM) was 84% and the “% survival” value ([2]; 10 µM) was 78%. The inhibition of viability ([2]; at 10 µM, 12 h exposure) was 22%, the “% survival” value ([3]; 0.1 µM) was 104% and the “% survival” value ([3]; 0.5 µM) was 104%. The “% survival” value ([3]; 1 µM) was 105%, the “% survival” value ([3]; 5 µM) was 98% and the “% survival” value ([3]; 10 µM) was 88%. The inhibition of viability ([3]; hP2Y6R-1321N1 cells, at 10 µM, 12 h exposure) was 12% and the IC50 [4] was 17800 nM.
For CC(C)(C)OC(=O)NCCCCC#Cc1ccc2c(c1)C=C([N+](=O)[O-])C(C(F)(F)F)O2 (centres unmarked) [Compound 24, tert-Butyl (6-(3-nitro-2-(trifluoromethyl)-2H-chromen-6-yl)hex-5-yn-1-yl)carbamate], the IC50 [5] was 568 ± 163 nM, the IC50 ([6]; CHO-hP2Y14, competitive binding, flow cytometer) was 5600 ± 700 nM and the “fold selective compared to the hP2Y14R” value ([6]; hP2Y6R vs hP2Y14R) was 10 fold. For the same compound, the Ki ([7]; PDSP, mean, n = 2, read-out: Ki, α2A) was 160 nM, the Ki ([7]; Table S2, single determinations, read-out: Ki (nM), Alpha2A) was 148 nM and 168 nM and the Ki [8] was 460 nM. For the same compound, the Ki ([9]; PDSP, mean, n = 2, read-out: Ki, D1) was 1900 nM, the Ki ([9]; Table S2, single determination, read-out: Ki (nM), D1) was 1600 nM and the Ki ([10]; PDSP, mean, n = 2, read-out: Ki, D5) was 2400 nM. For the same compound, the Ki ([10]; Table S2, single determinations, read-out: Ki (nM), D5) was 1360 nM and 3420 nM, the Ki ([11]; PDSP, mean, n = 2, read-out: Ki, H1) was 1000 nM and the Ki ([11]; Table S2, single determinations, read-out: Ki (nM), H1) was 631 nM and 1430 nM. For the same compound, the Ki ([12]; PDSP, mean, n = 2, read-out: Ki, 5-HT1D) was 3200 nM and the Ki ([12]; Table S2, single determinations, read-out: Ki (nM), 5-HT1D) was 3260 nM and 3040 nM.
For CC[Si](C#Cc1ccc2c(c1)C=C([N+](=O)[O-])C(C(F)(F)F)O2)(CC)CC (centres unmarked) [Compound 13], the IC50 [5] is given as 604 ± 239 nM, the Ki [13] is given as 2000 nM and the “inhibition at most other P2YRs” value [14] is given as “minor”.
For O=c1ccn([C@@H]2O[C@H](COP(=O)(O)OP(=O)(O)O)[C@@H](O)[C@H]2O)c(=O)[nH]1 [UDP, uridine 5′-diphosphate], the EC50 [15] is listed as 13 nM.
With O=c1[nH]c(=O)n([C@@H]2O[C@H](COP(=O)(O)OP(=O)(O)O)[C@@H](O)[C@H]2O)cc1I [MRS2693, 5-iodouridine-5′-O-diphosphate, reference compound] the “% survival” value ([2]; 1 µM) was 105%, the “% survival” value ([2]; 5 µM) was 106% and the “% survival” value ([2]; 10 µM) was 104%. The “% survival” value ([3]; 1 µM) was 98%, the “% survival” value ([3]; 5 µM) was 100% and the “% survival” value ([3]; 10 µM) was 101%. For the same compound, the “effect on viability” value ([3]; astrocytoma cells, ≤10 µM, 12 h exposure) was “no significant effect” and the EC50 [15] was 15 nM.
For S=C=Nc1cccc(NC(=S)NCCCCNC(=S)Nc2cccc(N=C=S)c2)c1 [Compound 1], the IC50 [16] is given as 98 nM.
In the case of O=C(O)c1ccc(C#Cc2ccc3c(c2)C=C([N+](=O)[O-])C(C(F)(F)F)O3)cc1 (centres unmarked) [Compound 17], the Ki [17] is given as 2600 nM, the Ki [18] is given as 4200 nM and the “inhibition at most other P2YRs” value [14] is given as “minor”.
